Measurements as given in patent US20250382258A1, “NAPHTHALENE-TYPE COMPOUND AND PREPARATION METHOD THEREFORE AND USE THEREFORE” (DALIAN INSTITUTE OF CHEMICAL PHYSICS, CHINESE ACADEMY OF …, priority 2022, published 2025).
Values after ≈ are worked out from the molar mass of the structure shown.

assay: water solubility under acidic conditions; format: physicochemical; conditions: not given

| Compound | water solubility under acidic conditions |
| --- | --- |
| 2,2′,6,6′-tetrabenzylamine-5,5′-dihydroxy-1,1′-dicarbonylbinaphthalene | approximately 2 M |
| O=C1C(NCc2ccccc2)=C(O)C(=O)c2c(O)c(NCc3ccccc3)cc(NCc3ccccc3)c21 [3,5,7-tribenzylamine-2,8-dihydroxy-1,4-dicarbonylnaphthalene] | approximately 1.6 M |
| Oc1c(NCc2ccccc2)ccc2c(O)c(NCc3ccccc3)ccc12 [2,6-Dibenzylamine-1,5-naphthalenediol] | lower than 5 mM |
| Oc1c(NCc2ccccc2)cc(NCc2ccccc2)c2c(O)c(NCc3ccccc3)cc(NCc3ccccc3)c12 [2,4,6,8-Tetrabenzylamine-1,5-naphthalenediol] | lower than 1 M |
| O=C1C(O)=C(NCc2ccccc2)C(=O)c2ccccc21 [3-benzylamine-2-hydroxy-1,4-dicarbonylnaphthalene] | approximately 1 M |

assay: not given; conditions: in a pH=14 aqueous solution; cited from earlier work

| Compound | solubility |
| --- | --- |
| O=C1C(O)=C(C2=C(O)C(=O)c3ccccc3C2=O)C(=O)c2ccccc21 [bilawsone] | 560 mM (≈ 194 mg/mL) |
